# Experimental data reported in publication PMC4170002 (Journal of immunology (Baltimore, Md. : 1950), 2014).
# Values joined by “and” are separate entries in the source; they are usually repeats but may differ in a detail not shown here. Equal entries are not always repeated. “Also recorded” adds a separate entry of the source.
# Columns and labels:
# [1] = target: T1, TYK2 (Homo sapiens, UniProt P29597); assay: 33P-ATP kinase assay, TYK2; type: biochemical; conditions: read-out: IC50 TYK2; 33P-ATP assay, 10 μM ATP
# T1 sequence (P29597 whole entry): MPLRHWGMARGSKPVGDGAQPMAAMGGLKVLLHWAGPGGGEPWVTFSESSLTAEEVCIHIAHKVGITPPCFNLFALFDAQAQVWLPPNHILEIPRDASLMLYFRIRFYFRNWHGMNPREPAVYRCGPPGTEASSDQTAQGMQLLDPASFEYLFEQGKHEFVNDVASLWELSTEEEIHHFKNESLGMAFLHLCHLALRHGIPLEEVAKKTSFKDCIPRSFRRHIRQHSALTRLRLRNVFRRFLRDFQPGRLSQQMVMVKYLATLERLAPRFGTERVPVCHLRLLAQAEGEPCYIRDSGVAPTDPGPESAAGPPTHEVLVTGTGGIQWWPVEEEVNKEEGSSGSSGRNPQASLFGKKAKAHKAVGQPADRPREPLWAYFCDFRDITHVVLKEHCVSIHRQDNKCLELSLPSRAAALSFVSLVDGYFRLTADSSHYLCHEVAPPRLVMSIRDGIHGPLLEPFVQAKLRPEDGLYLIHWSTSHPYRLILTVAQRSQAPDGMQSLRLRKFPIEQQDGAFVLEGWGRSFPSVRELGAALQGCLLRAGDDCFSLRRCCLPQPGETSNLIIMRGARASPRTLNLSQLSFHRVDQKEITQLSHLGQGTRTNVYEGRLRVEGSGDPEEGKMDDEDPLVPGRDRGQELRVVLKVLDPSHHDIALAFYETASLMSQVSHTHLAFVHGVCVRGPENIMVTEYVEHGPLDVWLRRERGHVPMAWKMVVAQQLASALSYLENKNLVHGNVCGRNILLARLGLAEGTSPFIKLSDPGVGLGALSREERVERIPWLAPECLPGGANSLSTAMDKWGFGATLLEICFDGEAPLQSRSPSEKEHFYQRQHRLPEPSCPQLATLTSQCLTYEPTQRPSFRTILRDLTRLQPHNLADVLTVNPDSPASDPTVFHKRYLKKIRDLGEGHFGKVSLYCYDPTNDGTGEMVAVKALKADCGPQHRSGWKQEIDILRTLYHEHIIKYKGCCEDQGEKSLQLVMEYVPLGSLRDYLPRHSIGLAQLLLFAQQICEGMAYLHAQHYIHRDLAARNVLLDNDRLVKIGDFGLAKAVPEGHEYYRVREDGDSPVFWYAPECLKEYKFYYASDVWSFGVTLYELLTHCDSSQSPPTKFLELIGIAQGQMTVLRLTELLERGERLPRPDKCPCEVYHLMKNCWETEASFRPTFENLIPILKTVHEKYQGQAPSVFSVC
# [2] = target: T2, JAK1 (Homo sapiens, UniProt P23458); assay: 33P-ATP kinase assay, JAK1; type: biochemical; conditions: read-out: IC50 JAK1; 33P-ATP assay, 10 μM ATP
# T2 sequence (P23458 whole entry): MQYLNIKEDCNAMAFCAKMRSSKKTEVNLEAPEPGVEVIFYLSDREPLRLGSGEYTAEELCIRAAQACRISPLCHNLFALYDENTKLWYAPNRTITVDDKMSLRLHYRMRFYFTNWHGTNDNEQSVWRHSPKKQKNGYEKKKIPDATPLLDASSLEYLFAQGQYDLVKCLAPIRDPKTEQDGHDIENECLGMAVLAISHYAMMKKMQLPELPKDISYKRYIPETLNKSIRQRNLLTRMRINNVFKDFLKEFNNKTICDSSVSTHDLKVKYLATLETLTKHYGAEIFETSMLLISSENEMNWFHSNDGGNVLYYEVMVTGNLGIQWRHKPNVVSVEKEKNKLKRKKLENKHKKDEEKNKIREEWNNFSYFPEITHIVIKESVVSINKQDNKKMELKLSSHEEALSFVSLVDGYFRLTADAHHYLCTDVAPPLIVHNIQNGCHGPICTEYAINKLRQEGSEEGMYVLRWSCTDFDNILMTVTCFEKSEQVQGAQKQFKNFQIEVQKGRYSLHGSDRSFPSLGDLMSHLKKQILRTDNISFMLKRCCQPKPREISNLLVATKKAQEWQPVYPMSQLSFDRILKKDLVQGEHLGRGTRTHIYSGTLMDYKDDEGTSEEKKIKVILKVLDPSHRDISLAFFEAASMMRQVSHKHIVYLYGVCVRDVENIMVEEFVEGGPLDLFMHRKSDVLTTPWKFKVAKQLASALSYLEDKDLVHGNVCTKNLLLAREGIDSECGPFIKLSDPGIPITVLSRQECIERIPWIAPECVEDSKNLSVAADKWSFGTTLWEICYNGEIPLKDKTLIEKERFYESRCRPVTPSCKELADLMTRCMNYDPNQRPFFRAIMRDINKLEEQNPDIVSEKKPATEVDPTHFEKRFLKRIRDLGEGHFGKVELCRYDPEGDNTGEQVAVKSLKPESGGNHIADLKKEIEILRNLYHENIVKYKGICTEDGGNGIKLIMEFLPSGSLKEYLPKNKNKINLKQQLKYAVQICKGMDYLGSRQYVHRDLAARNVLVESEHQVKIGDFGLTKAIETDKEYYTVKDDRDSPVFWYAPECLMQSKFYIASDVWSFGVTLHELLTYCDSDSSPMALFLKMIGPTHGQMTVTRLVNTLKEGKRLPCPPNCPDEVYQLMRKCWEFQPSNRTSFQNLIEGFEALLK
# [3] = target: T3, JAK3 (Homo sapiens, UniProt P52333); assay: 33P-ATP kinase assay, JAK3; type: biochemical; conditions: read-out: IC50 JAK3; 33P-ATP assay, 10 μM ATP
# T3 sequence (P52333 1-1124): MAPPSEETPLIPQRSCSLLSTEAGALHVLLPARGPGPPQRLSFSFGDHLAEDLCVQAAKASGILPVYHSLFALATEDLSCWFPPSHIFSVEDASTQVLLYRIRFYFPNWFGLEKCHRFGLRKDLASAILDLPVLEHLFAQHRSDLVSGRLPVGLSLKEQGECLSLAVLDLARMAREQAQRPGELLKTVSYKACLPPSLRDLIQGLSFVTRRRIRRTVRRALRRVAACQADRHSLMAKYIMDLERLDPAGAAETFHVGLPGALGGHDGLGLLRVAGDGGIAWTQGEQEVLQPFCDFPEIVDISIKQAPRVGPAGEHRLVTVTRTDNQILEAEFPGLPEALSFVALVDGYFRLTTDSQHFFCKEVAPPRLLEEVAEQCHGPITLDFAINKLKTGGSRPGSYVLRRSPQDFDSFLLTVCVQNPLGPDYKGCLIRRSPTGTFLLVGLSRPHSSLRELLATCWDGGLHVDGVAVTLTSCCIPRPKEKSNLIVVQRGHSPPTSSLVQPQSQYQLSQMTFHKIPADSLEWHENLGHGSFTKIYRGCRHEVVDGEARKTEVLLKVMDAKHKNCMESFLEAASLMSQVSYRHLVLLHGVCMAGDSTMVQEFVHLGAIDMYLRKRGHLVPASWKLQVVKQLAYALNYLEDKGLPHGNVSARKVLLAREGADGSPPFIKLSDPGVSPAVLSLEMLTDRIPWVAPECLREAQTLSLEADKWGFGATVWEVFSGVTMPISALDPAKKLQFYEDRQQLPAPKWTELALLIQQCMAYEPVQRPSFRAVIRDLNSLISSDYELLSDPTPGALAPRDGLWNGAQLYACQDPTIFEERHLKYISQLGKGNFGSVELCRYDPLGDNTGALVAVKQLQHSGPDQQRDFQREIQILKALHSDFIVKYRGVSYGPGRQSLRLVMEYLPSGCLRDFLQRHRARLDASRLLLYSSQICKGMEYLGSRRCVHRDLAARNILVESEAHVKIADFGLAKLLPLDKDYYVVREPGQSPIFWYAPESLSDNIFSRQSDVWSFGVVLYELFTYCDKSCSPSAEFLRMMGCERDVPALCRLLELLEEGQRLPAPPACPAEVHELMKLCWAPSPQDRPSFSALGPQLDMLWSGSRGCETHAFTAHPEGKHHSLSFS
# [4] = target: T1, TYK2; assay: IL-12-induced pSTAT4 in NK-92 cells; type: cell-based; conditions: read-out: IC50 TYK2, pSTAT (cell lines), IL-12, pSTAT4
# [5] = target: T2, JAK1; assay: IL-6-induced pSTAT3 in TF-1 cells; type: cell-based; conditions: read-out: IC50 JAK1, pSTAT (cell lines), IL-6, pSTAT3
# [6] = target: T1, TYK2; assay: IL-12-induced pSTAT4 in primary CD4+ cells; type: cell-based; conditions: read-out: IC50 TYK2, pSTAT (primary cells), IL-12, pSTAT4
# [7] = target: T2, JAK1; assay: IL-6-induced pSTAT3 in primary CD4+ cells; type: cell-based; conditions: read-out: IC50 JAK1, pSTAT (primary cells), IL-6, pSTAT3
# [8] = target: T3, JAK3; assay: IL-2-induced pSTAT5 in PBMCs; type: cell-based; conditions: read-out: IC50 JAK3, pSTAT (primary cells), IL-2, pSTAT5
# [9] = test system: IL-22 signaling; assay: IL-22-induced pSTAT3 in HT-29 cells; type: cell-based, human
# [10] = test system: IL-12 signaling; assay: IL-12-induced IFN-γ production in PBMCs; type: cell-based; conditions: human PBMCs, 10 ng/mL IL-12, 24 hours
# [11] = test system: IFN-α signaling; assay: HEK-BLUE IFN-α/β SEAP reporter assay; type: cell-based; conditions: HEK-BLUE IFN-α/β cells, 200 U IFN-α, 24 hours
# [12] = test system: Splenic CD4+ cells; assay: T helper cell development; type: cell-based, mouse; conditions: 1 μM, 4 days; for IFN-γ production in Th1 cells: Th1 conditions; for IL-4 in Th2 cultures: Th2 conditions; for Foxp3+ cells under Th17-skewing conditions / percent of IL-17+ cells: Th17-skewing conditions; for development of iTregs: iTreg conditions
# [13] = test system: CD4+ T cells; assay: CD4+ T cell proliferation; type: cell-based, mouse; conditions: anti-CD28/anti-TCR, 4 days
# [14] = Mouse liver microsome stability; type: in vitro ADME; conditions: 0.5 μM
# [15] = Caco-2 permeability; type: in vitro ADME; conditions: 5 μM, pH 7.4
# [16] = In vivo pharmacokinetics in CD-1 mice; design: species or system mouse; conditions: for Cmax or Co: CD-1 mice
# [17] = test system: IL-12 signaling in vivo; assay: IL-12/IL-18-induced serum IFN-γ in vivo; design: species or system mouse; conditions: 60 mg/kg, 30 minutes prior to IL-12/IL-18, vs vehicle
# [18] = test system: IL-22 signaling; assay: IL-22-induced Serum Amyloid A; type: in vivo, mouse; conditions: 50 mg/kg p.o., C57BL/6 mice, 10 μg IL-22, 6 hours, vs vehicle
# [19] = test system: imiquimod-induced dermatitis; assay: Imiquimod-induced psoriasis-like dermatitis; type: in vivo
# [20] = test system: non-JAK kinases; assay: Kinome analysis; type: biochemical; conditions: 100 nM
# [21] = target: T1, TYK2; assay: TR-FRET STAT3 phosphorylation assay, TYK2; conditions: read-out: IC50 TYK2, 10 μM ATP, GFP-STAT3
# [22] = target: T2, JAK1; assay: TR-FRET STAT3 phosphorylation assay, JAK1; conditions: read-out: IC50 JAK1, 10 μM ATP, GFP-STAT3
# [23] = target: T3, JAK3; assay: TR-FRET STAT3 phosphorylation assay, JAK3; conditions: read-out: IC50 JAK3, 10 μM ATP, GFP-STAT3
# [24] = 50 mg/kg p.o. twice daily, back skin
# [25] = 50 mg/kg, qPCR, vs wild type and TYK2 mutant mice
compound,measurement,setting,value
NC(=O)c1nc(-c2c(F)cccc2Cl)oc1Nc1ccc(C(=O)N2CCOCC2)cc1 [SAR-20347],IC50,[1],0.0006 ± 0.0001 µM
same,IC50,[2],0.023 ± 0.019 µM
same,IC50,[3],0.041 ± 0.011 µM
same,IC50,[4],0.126 µM
same,IC50,[5],0.345 µM
same,IC50,[6],0.107 µM
same,IC50,[7],0.423 µM
same,IC50,[8],1.61 µM
same,inhibition of STAT3 phosphorylation,[9]; 10 μM,94%
same,IC50,"[9]; read-out: IC50 IL-22-induced pSTAT3, 10 ng/mL IL-22, 15 minutes",0.148 µM
same,inhibition of IL-12 induced IFN-γ production,[10],dose-dependent inhibition of IFN-γ production; also recorded: complete inhibition
same,inhibition of SEAP production,[11],dose-dependently inhibited the production of SEAP
same,IFN-γ production in Th1 cells,[12],potently blocked IFN-γ production
same,IL-4 in Th2 cultures,[12],capable of reducing IL-4
same,Foxp3+ cells under Th17-skewing conditions,[12],dramatic increase in Foxp3+ cells
same,percent of IL-17+ cells,[12],reduces the percent of IL-17+cells
same,development of iTregs,[12],did not alter the development of iTregs
same,CD4+ T cell proliferation,[13],inhibited proliferation to a comparable extent
same,doses significantly decreasing proliferation compared to 0 μM (DMSO),[13]; two-way ANOVA,≥ 0.315 µM
same,clearance rate in mouse liver microsomes,[14],26 µL/min/mg
same,half-life in mouse liver microsomes,[14],52.7 min
same,Caco-2 AB: BA,[15],1.3
same,Caco-2 permeability,[15],good permeability
same,AUC0-8h,[16]; 1 mg/kg (i.v.),305 ng/h/mL
same,Cl,[16]; 1 mg/kg (i.v.),52 mL/min/kg and 52.1 mL/min/kg
same,T1/2,[16]; 1 mg/kg (i.v.),162 min
same,Cmax or Co,[16]; 1 mg/kg (i.v.),433 ng/mL
same,AUC0-8h,[16]; 10 mg/kg (p.o.),2131 ng/h/mL
same,F,[16]; 10 mg/kg (p.o.),69.8%
same,T1/2,[16]; 10 mg/kg (p.o.),144 min
same,Tmax,[16]; 10 mg/kg (p.o.),24 min
same,Cmax or Co,[16]; 10 mg/kg (p.o.),1343 ng/mL
same,AUC0-8h,[16]; 50 mg/kg (p.o.),18740 ng/h/mL
same,T1/2,[16]; 50 mg/kg (p.o.),168 min
same,Tmax,[16]; 50 mg/kg (p.o.),30 min
same,Cmax or Co,[16]; 50 mg/kg (p.o.),6273 ng/mL
same,maximum serum concentration (Tmax),[16]; mice,30 min
same,inhibition of production of IFN-γ in the serum,[17],91%
same,decrease of SAA levels,[18],45%
same,gross toxicity,[19]; 50 mg/kg p.o. twice daily,no gross toxicity
same,Ki67 staining,[19]; [24],significantly reduced
same,histological score,[19]; [24],significantly reduced
same,keratinocyte cell numbers,[19]; [24],significantly reduced
same,scaling and redness (clinical score),"[19]; 50 mg/kg p.o. twice daily, vs TYK2 mutant or vehicle-treated wild type mice",markedly reduced scaling and redness
same,IL-2 expression levels in the skin,"[19]; 50 mg/kg, qPCR",did not affect
same,IL-10 expression levels in the skin,"[19]; 50 mg/kg, qPCR",did not affect
same,S100A8 gene expression in the skin,"[19]; 50 mg/kg, qPCR",significantly decreased
same,S100A9 gene expression in the skin,"[19]; 50 mg/kg, qPCR",significantly decreased
same,defensin β1 gene expression in the skin,"[19]; 50 mg/kg, qPCR",significantly decreased
same,IL-6 mRNA expression in the skin,[19]; [25],significantly reduced expression
same,IL-17 mRNA expression in the skin,[19]; [25],significantly reduced expression
same,IL-20 mRNA expression in the skin,[19]; [25],significantly reduced expression
same,IL-22 mRNA expression in the skin,[19]; [25],significantly reduced expression
same,IL-23 mRNA expression in the skin,[19]; [25],significantly reduced expression
same,TNF mRNA expression in the skin,[19]; [25],significantly reduced expression
same,IL-17 production (average signal intensity),"[19]; 50 mg/kg, skin IHC",significantly reduced IL-17 production
same,Vγ3 expression (average signal intensity),"[19]; 50 mg/kg, skin IHC",significantly lower
same,number of CD4+ cells in skin,"[19]; 50 mg/kg, skin IHC",not affected
same,inhibitory activity towards non-JAK kinases,[20],comparable to the previously established values for tofacitinib and ruxolitinib
same,IC50,[21],0.013 ± 0.003 µM
same,IC50,[22],0.059 ± 0.043 µM
same,IC50,[23],1.44 ± 0.63 µM
"C[C@@H]1CCN(C(=O)CC#N)C[C@@H]1N(C)c1ncnc2[nH]ccc12 [Tofacitinib, reference compound]",IFN-γ production in Th1 cells,[12],potently blocked IFN-γ production
same,IL-4 in Th2 cultures,[12],capable of reducing IL-4
same,Foxp3+ cells under Th17-skewing conditions,[12],no effect on Th17 skewing or change in the number of Foxp3+ cells
same,percent of IL-17+ cells,[12],no effect on Th17 skewing
same,development of iTregs,[12],significantly reduced iTreg development
